Here are results for six compounds from ChEMBL document CHEMBL5136998, “Chasing a Breath of Fresh Air in Cystic Fibrosis (CF): Therapeutic Potential of Selective HDAC6 Inhibitors to Tackle Multiple Pathways in CF Pathophysiology” (J Med Chem, 2022).

A short description of assay [1]: Inhibition of human recombinant HDAC3/NcoR2 using RHKKAc as substrate.
The target of the next assay is T1, Histone deacetylase 7 (Homo sapiens, UniProt Q8WUI4).
T1 sequence (Q8WUI4 whole entry): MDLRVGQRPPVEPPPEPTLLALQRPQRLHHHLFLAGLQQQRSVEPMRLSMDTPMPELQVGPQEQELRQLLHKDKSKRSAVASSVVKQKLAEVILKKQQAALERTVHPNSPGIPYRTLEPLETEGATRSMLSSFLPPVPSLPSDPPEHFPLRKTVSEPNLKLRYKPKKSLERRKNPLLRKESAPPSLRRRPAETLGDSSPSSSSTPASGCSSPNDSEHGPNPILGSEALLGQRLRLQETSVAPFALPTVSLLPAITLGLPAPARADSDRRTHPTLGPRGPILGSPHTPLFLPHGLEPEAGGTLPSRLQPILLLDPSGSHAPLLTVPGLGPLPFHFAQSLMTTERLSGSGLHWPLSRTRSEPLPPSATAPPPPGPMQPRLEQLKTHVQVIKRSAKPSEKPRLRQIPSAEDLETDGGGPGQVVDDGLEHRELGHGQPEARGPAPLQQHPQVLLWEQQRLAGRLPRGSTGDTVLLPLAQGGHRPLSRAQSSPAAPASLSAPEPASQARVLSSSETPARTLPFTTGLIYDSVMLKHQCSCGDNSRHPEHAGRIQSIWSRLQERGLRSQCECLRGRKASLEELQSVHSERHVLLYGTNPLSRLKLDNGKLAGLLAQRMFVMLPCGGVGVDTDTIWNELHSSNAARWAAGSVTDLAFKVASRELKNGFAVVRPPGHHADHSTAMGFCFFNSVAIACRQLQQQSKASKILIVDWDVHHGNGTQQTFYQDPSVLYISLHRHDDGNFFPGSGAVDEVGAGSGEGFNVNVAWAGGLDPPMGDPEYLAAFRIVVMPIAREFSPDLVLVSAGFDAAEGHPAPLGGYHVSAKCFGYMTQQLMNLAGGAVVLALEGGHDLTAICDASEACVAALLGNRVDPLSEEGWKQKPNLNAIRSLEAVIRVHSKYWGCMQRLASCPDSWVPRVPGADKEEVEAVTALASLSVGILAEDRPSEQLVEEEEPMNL
As to the kind of experiment: Inhibition of HDAC7 (unknown origin).

For assay [2], the target named is T2, Histone deacetylase 1 (Homo sapiens, UniProt Q13547). Description: Inhibition of HDAC1 (unknown origin).
The target of assay [3] is T3, Histone deacetylase 2 (Homo sapiens, UniProt Q92769).
For assay [4], the target named is T4, Protein deacetylase HDAC6 (Homo sapiens, UniProt Q9UBN7).
T4 sequence (Q9UBN7 whole entry): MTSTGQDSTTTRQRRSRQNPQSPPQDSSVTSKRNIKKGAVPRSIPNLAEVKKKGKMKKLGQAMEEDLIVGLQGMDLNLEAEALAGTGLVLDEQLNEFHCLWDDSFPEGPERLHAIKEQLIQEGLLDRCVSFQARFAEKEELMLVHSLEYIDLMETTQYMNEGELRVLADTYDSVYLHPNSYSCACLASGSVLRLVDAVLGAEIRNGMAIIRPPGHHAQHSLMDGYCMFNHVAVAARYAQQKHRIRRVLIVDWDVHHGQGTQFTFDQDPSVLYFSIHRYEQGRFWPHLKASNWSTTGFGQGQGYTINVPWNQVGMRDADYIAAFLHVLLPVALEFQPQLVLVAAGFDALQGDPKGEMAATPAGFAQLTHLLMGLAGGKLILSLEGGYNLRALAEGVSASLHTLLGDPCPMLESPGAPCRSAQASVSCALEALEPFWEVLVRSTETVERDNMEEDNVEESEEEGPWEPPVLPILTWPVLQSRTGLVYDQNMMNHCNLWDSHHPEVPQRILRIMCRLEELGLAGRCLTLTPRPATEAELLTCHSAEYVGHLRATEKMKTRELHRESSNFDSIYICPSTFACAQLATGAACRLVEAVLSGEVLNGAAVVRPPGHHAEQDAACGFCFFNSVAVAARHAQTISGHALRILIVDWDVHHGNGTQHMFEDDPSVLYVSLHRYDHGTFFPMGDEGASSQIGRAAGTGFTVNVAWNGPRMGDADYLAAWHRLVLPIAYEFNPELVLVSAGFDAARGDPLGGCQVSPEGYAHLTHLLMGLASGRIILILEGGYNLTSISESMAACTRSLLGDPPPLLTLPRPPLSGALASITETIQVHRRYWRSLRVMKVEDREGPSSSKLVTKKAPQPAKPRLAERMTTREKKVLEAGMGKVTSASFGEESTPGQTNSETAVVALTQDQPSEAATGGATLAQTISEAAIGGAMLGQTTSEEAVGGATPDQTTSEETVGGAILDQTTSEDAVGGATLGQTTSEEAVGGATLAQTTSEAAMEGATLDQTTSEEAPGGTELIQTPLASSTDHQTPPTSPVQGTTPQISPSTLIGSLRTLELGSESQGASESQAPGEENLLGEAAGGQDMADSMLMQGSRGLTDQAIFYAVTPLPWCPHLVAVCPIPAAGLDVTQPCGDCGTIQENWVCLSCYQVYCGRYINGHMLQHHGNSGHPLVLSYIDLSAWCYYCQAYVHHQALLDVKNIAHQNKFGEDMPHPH
Description: Inhibition of HDAC6 (unknown origin).

Another assay has as its target T5, Histone deacetylase 8 (Homo sapiens, UniProt Q9BY41).
T5 sequence (Q9BY41 whole entry): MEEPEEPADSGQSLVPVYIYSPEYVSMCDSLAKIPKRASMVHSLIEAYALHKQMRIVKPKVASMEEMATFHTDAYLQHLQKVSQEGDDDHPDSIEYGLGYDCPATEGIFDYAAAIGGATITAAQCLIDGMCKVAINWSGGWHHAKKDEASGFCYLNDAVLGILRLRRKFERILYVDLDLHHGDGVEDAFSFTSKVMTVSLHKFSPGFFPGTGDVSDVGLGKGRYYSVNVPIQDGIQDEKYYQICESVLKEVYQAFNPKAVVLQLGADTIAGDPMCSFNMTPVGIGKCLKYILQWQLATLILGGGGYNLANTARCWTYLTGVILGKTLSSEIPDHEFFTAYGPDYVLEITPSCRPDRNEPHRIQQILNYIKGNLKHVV
Description: Inhibition of HDAC8 (unknown origin).

In another assay the target is Histone deacetylase 3 (Homo sapiens, UniProt O15379). As to the kind of experiment: Inhibition of HDAC3 (unknown origin).
For assay [5], the target named is T6, Protein deacetylase HDAC6 (Homo sapiens) (UniProt Q9UBN7).
T6 sequence (whole entry): T4 sequence (Q9UBN7 whole entry)
As to the kind of experiment: Inhibition of HDAC6 derived from human HeLa cell nuclear extract at 100 uM incubated for 2 hrs relative to control. The format is cell-free.

Assay [6] has as its target T2, Histone deacetylase 1. As to the kind of experiment: Inhibition of HDAC1 derived from human HeLa cell nuclear extract at 100 uM incubated for 2 hrs relative to control. It counts as cell-free.
The target in assay [7] is Histone deacetylase 4 (Homo sapiens) (UniProt P56524). Description: Inhibition of human HDAC4 at 100 uM relative to control.
Assay [8] has as its target T3, Histone deacetylase 2. Description: Inhibition of human HDAC2 at 100 uM relative to control.
Assay [9] has as its target T2, Histone deacetylase 1. Description: Inhibition of human recombinant HDAC1 using fluorogenic substrate.

T2 sequence (Q13547 whole entry): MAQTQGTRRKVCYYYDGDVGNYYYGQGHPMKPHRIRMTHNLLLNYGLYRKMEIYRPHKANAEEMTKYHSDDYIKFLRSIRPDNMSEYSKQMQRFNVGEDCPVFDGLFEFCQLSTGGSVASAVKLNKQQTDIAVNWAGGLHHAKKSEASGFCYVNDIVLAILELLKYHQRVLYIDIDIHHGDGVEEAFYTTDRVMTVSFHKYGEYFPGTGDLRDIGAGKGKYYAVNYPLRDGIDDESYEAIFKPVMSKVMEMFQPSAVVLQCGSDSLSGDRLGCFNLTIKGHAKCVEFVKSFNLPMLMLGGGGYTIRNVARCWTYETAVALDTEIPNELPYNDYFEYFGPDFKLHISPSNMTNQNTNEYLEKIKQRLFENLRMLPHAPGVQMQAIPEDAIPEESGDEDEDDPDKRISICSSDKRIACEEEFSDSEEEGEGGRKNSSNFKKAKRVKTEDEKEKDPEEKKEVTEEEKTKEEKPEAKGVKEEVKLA
T3 sequence (Q92769 whole entry): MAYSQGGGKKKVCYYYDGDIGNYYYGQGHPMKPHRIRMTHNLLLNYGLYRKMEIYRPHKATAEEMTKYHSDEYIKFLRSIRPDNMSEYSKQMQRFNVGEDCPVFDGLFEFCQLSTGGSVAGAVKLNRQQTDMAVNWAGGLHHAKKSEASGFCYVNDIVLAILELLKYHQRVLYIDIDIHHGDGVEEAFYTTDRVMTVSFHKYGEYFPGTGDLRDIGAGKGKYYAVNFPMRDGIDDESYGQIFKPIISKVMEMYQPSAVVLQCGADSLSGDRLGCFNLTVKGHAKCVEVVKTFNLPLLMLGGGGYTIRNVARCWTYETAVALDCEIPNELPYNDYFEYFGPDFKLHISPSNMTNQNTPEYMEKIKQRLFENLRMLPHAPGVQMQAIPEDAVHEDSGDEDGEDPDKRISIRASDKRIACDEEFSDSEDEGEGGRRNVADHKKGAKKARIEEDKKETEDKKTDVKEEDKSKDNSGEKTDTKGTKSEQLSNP
Sequence of Histone deacetylase 4 (Homo sapiens) (P56524 whole entry): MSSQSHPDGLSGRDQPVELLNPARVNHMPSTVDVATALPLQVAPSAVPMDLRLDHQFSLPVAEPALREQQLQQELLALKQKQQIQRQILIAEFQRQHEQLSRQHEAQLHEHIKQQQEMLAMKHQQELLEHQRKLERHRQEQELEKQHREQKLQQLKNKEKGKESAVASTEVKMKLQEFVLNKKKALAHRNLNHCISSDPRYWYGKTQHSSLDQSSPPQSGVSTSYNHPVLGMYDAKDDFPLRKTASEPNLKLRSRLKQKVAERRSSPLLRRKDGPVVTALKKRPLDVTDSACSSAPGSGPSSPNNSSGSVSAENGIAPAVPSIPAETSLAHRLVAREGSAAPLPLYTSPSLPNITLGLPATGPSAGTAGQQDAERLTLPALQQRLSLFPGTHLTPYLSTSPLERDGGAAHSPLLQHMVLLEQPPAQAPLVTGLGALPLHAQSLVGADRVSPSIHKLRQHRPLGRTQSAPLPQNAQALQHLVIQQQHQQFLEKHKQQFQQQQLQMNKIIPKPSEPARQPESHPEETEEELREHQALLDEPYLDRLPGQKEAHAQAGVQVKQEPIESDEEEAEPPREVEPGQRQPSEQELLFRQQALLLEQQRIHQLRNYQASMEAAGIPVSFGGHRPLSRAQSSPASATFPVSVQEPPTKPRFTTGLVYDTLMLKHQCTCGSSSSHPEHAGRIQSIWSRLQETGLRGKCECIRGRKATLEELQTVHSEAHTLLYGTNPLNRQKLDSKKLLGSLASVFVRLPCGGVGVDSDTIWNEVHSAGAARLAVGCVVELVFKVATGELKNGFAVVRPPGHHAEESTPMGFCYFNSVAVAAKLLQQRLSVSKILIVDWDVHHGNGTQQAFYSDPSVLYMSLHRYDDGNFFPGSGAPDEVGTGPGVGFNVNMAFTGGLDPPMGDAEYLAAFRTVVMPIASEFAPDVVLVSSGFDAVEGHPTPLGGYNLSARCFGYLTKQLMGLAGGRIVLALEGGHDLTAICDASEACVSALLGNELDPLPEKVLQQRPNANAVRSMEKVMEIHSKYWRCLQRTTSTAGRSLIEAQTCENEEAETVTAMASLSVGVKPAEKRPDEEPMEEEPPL
Sequence of Histone deacetylase 3 (O15379 whole entry): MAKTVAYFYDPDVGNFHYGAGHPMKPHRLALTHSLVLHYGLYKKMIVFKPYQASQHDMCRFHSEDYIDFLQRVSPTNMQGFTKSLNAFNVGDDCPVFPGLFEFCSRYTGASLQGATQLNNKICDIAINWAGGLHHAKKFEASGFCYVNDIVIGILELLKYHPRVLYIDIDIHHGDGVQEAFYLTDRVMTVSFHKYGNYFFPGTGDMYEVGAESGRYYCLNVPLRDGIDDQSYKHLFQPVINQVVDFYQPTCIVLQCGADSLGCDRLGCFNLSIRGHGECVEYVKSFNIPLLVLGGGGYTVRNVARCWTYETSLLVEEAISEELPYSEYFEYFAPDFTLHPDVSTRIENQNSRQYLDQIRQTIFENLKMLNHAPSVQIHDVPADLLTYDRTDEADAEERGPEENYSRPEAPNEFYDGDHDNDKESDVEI

The term IC50 denotes the midpoint of a concentration-inhibition curve. With `CN1CCc2c(c3ccccc3n2Cc2ccc(C(=O)NO)cc2)C1` [TUBASTATIN A], the IC50 in assay [1] is more than 30 µM.
As for `CCCC(=O)O` [BUTYRIC ACID], the IC50 against Histone deacetylase 7 worked out at 300 µM; against Histone deacetylase 1 [2], 300 µM; at Histone deacetylase 2 [3] it was 400 µM.
As for `C[C@@H]1CN(Cc2ccc(C(=O)NO)cc2)C[C@H](C)N1Cc1cccc(Cl)c1`, the IC50 stood at 0.041 µM in [4] and 11.4 µM against Histone deacetylase 1 [2].
`CC(C)(C)OC(=O)Nc1cccc(C(=O)/C=C/c2ccc(/C=C/C(=O)NO)cc2)c1`: the IC50 in assay [4] is 0.011 µM; against Histone deacetylase 2 [3], 2.1 µM; at Histone deacetylase 8, 1.2 µM; against Histone deacetylase 3, 10.8 µM.
As a reminder, the inhibition is how much of the control response was suppressed. With `Oc1ccc(/C=C/c2cc(O)cc(O)c2)cc1`, the inhibition in assay [5] was determined as 32%; at Histone deacetylase 1 [6], 39%; in assay [7] it was 23%; against Histone deacetylase 2 [8], 21%.
In the case of `O=C(O)CCCc1ccccc1` [SODIUM PHENYLBUTYRATE], at Histone deacetylase 1 [9], the IC50 worked out at 162 µM.
